In ChEMBL document CHEMBL1201862, “PubChem BioAssay data set” (2004):
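All cell lines were grown in 96-well plates and treated with compound for 48 hours. The concentration for 50% growth inhibition is given as GI50.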 Active and inactive are the calls of the source. No stated cut-off is given here; in the data, active = GI50 up to about 1.1 µM and inactive = higher. Residues, ends and D or L forms follow the SMILES beside them. *: point of attachment. Boc = CC(C)(C)OC(=O)*; OBn = c1ccc(CO*)cc1

Assays:
Experiment in all cases: growth of human tumour cells (NCI), 48 h
OVCAR-5 = system: OVCAR-5
OVCAR-8 = system: OVCAR-8
KM12 = system: KM12
MDA-N = system: MDA-N
SF-539 = system: SF-539
UACC-257 = system: UACC-257
HCC 2998 = system: HCC 2998
NCI-H460 = system: NCI-H460
SF-295 = system: SF-295
SK-MEL-5 = system: SK-MEL-5
CAKI-1 = system: CAKI-1
SN12C = system: SN12C
NCI-H522 = system: NCI-H522
SW-620 = system: SW-620
HOP-92 = system: HOP-92
NCI-H23 = system: NCI-H23
MOLT-4 = system: MOLT-4
HOP-62 = system: HOP-62
A498 = system: A498
M14 = system: M14
786-0 = system: 786-0
MDA-MB-231 = system: MDA-MB-231
RPMI-8226 = system: RPMI-8226
SNB-75 = system: SNB-75
PC-3 = system: PC-3
Hs-578T = system: Hs-578T
DU-145 = system: DU-145
A549 = system: A549
HT-29 = system: HT-29
U-251 = system: U-251
MCF7 = system: MCF7
NCI/ADR-RES = system: NCI/ADR-RES
SK-MEL-2 = system: SK-MEL-2
HCT-116 = system: HCT-116
SF-268 = system: SF-268
CCRF-CEM = system: CCRF-CEM
TK-10 = system: TK-10
Malme-3M = system: Malme-3M
UACC-62 = system: UACC-62
BT-549 = system: BT-549
K562 = system: K562
T47D = system: T47D
UO-31 = system: UO-31
LOX IMVI = system: LOX IMVI
SR = system: SR
RXF 393 = system: RXF 393
OVCAR-3 = system: OVCAR-3
MDA-MB-435 = system: MDA-MB-435
COLO 205 = system: COLO 205
SNB-19 = system: SNB-19
NCI-H226 = system: NCI-H226
SK-OV-3 = system: SK-OV-3
HL-60 = system: HL-60
EKVX = system: EKVX
IGROV-1 = system: IGROV-1
HCT-15 = system: HCT-15
SK-MEL-28 = system: SK-MEL-28
OVCAR-4 = system: OVCAR-4
ACHN = system: ACHN

Compound: CC(C)CC(NC(=O)OC(C)(C)C)C(=O)NC(CC(=O)OCc1ccccc1)C(=O)OCc1ccccc1 (stereo not drawn) (Boc-Leu-Asp(OBn)-OBn; configuration not given here)
- GI50 (OVCAR-5): > 100 µM (inactive)
- GI50 (OVCAR-8): > 100 µM (inactive)
- GI50 (KM12): 41.8 µM (inactive)
- GI50 (MDA-N): 42.2 µM (inactive)
- GI50 (SF-539): 31 µM (inactive)
- GI50 (UACC-257): 32.9 µM (inactive)
- GI50 (HCC 2998): 20.9 µM (inactive)
- GI50 (NCI-H460): 30.8 µM (inactive)
- GI50 (SF-295): 43.7 µM (inactive)
- GI50 (SK-MEL-5): 24.7 µM (inactive)
- GI50 (CAKI-1): > 100 µM (inactive)
- GI50 (SN12C): 22.4 µM (inactive)
- GI50 (NCI-H522): 27.9 µM (inactive)
- GI50 (SW-620): 34.2 µM (inactive)
- GI50 (HOP-92): 30.6 µM (inactive)
- GI50 (NCI-H23): 32.4 µM (inactive)
- GI50 (MOLT-4): 31 µM (inactive)
- GI50 (HOP-62): > 100 µM (inactive)
- GI50 (A498): > 100 µM (inactive)
- GI50 (M14): 19.2 µM (inactive)
- GI50 (786-0): 19 µM (inactive)
- GI50 (MDA-MB-231): 39.4 µM (inactive)
- GI50 (RPMI-8226): 27.8 µM (inactive)
- GI50 (SNB-75): 87.9 µM (inactive)
- GI50 (PC-3): 29.4 µM (inactive)
- GI50 (Hs-578T): > 100 µM (inactive)
- GI50 (DU-145): 37.9 µM (inactive)
- GI50 (A549): > 100 µM (inactive)
- GI50 (HT-29): 37.5 µM (inactive)
- GI50 (U-251): 25.5 µM (inactive)
- GI50 (MCF7): 31.5 µM (inactive)
- GI50 (NCI/ADR-RES): > 100 µM (inactive)
- GI50 (SK-MEL-2): 63 µM (inactive)
- GI50 (HCT-116): 30.7 µM (inactive)
- GI50 (SF-268): 41.8 µM (inactive)
- GI50 (CCRF-CEM): 33.1 µM (inactive)
- GI50 (TK-10): 21.3 µM (inactive)
- GI50 (Malme-3M): 51.5 µM (inactive)
- GI50 (UACC-62): 21.9 µM (inactive)
- GI50 (BT-549): 81.5 µM (inactive)
- GI50 (K562): 33.5 µM (inactive)
- GI50 (T47D): > 100 µM (inactive)
- GI50 (UO-31): 27 µM (inactive)
- GI50 (LOX IMVI): 22.8 µM (inactive)
- GI50 (SR): 25.8 µM (inactive)
- GI50 (RXF 393): 26.1 µM (inactive)
- GI50 (OVCAR-3): 22.4 µM (inactive)
- GI50 (MDA-MB-435): 40.1 µM (inactive)
- GI50 (COLO 205): 43.2 µM (inactive)
- GI50 (SNB-19): 29.4 µM (inactive)
- GI50 (NCI-H226): 57.9 µM (inactive)
- GI50 (SK-OV-3): > 100 µM (inactive)
- GI50 (HL-60): 26.1 µM (inactive)
- GI50 (EKVX): > 100 µM (inactive)
- GI50 (IGROV-1): > 10 µM (inactive)

Compound: COc1ccc(N2C(=O)C3c4[nH]c5ccc(OC)cc5c4C4CCC(c5ccccc5)CC4C3C2=O)cc1 (centres undefined)
- GI50 (OVCAR-5): 20.6 µM (inactive)
- GI50 (OVCAR-8): 7.48 µM (inactive)
- GI50 (KM12): 14.2 µM (inactive)
- GI50 (MDA-N): 18.4 µM (inactive)
- GI50 (SF-539): 2.09 µM (inactive)
- GI50 (UACC-257): 17.3 µM (inactive)
- GI50 (HCT-15): 31.3 µM
- GI50 (HCC 2998): 8.69 µM (inactive)
- GI50 (NCI-H460): 4.93 µM (inactive)
- GI50 (SF-295): 7.73 µM (inactive)
- GI50 (SK-MEL-5): 22.4 µM (inactive)
- GI50 (CAKI-1): 14.6 µM (inactive)
- GI50 (SN12C): 6.15 µM (inactive)
- GI50 (NCI-H522): 7.89 µM (inactive)
- GI50 (SW-620): 3.82 µM (inactive)
- GI50 (HOP-92): 16.7 µM (inactive)
- GI50 (NCI-H23): 17.5 µM (inactive)
- GI50 (MOLT-4): 4.32 µM (inactive)
- GI50 (HOP-62): 5.62 µM (inactive)
- GI50 (A498): 14.2 µM (inactive)
- GI50 (M14): 14.8 µM (inactive)
- GI50 (786-0): 2.12 µM (inactive)
- GI50 (MDA-MB-231): 7.05 µM (inactive)
- GI50 (SK-MEL-28): 14.1 µM (inactive)
- GI50 (RPMI-8226): 6.25 µM (inactive)
- GI50 (SNB-75): 3.15 µM (inactive)
- GI50 (PC-3): 19.2 µM (inactive)
- GI50 (OVCAR-4): 4.21 µM (inactive)
- GI50 (Hs-578T): 1.6 µM (inactive)
- GI50 (DU-145): 29.9 µM (inactive)
- GI50 (A549): 12.8 µM (inactive)
- GI50 (HT-29): 4.04 µM (inactive)
- GI50 (U-251): 8.99 µM (inactive)
- GI50 (MCF7): 19.6 µM (inactive)
- GI50 (NCI/ADR-RES): 12.6 µM (inactive)
- GI50 (SK-MEL-2): 20.3 µM (inactive)
- GI50 (HCT-116): 1.11 µM (active)
- GI50 (SF-268): 8.63 µM (inactive)
- GI50 (CCRF-CEM): 2.27 µM (inactive)
- GI50 (TK-10): 21.8 µM (inactive)
- GI50 (Malme-3M): 11.4 µM (inactive)
- GI50 (UACC-62): 15.1 µM (inactive)
- GI50 (BT-549): 19.6 µM (inactive)
- GI50 (K562): 7.67 µM (inactive)
- GI50 (T47D): 20.1 µM (inactive)
- GI50 (UO-31): 29.6 µM (inactive)
- GI50 (LOX IMVI): 17.3 µM (inactive)
- GI50 (SR): 0.451 µM (active)
- GI50 (RXF 393): 10.9 µM (inactive)
- GI50 (OVCAR-3): 16.7 µM (inactive)
- GI50 (MDA-MB-435): 16.4 µM (inactive)
- GI50 (COLO 205): 6.19 µM (inactive)
- GI50 (SNB-19): 11.9 µM (inactive)
- GI50 (ACHN): 9.48 µM (inactive)
- GI50 (NCI-H226): 28.7 µM (inactive)
- GI50 (SK-OV-3): 12.2 µM (inactive)
- GI50 (HL-60): 11.5 µM (inactive)
- GI50 (EKVX): 9.08 µM (inactive)
- GI50 (IGROV-1): 16.1 µM (inactive)
